From patent US8637557B2, “Aminothiazole derivative” (Taisho Pharmaceutical Co., Ltd, priority 2009, dated 2014)
Like-named read-outs stand apart in the source and are kept apart here.

Target: T1, human PI 3-kinase p120γ (Homo sapiens, UniProt P48736)
T1 construct: purchased Millipore Corporation
Test: PI 3-kinase p120γ enzyme activity inhibition test
Type: biochemical
Details: ATP 10.0 μM, PIP2-PS 5.0 μM, 30° C., 2 hours
Procedure: Using human PI 3-kinase p120γ (manufactured by Millipore Corporation) and a mixed micellized product (hereinafter abbreviated as PIP2-PS) of the substrate thereof, L-a-Phosphatidyl-D-myo-inositol-4,5-bisphosphate (product of Calbiochem, hereinafter abbreviated as PIP2), and L-a-Phosphatidyl-L-Serine (manufactured by Sigma, hereinafter abbreviated as PS), the compound of the present invention was examined for the inhibitory action on PI3 Kinase p120γ enzyme activity (Km=8.9 μM for ATP, Km=4.0 μM for PIP2-PS).
PIP2-PS was prepared by mixing 500 μM of PIP2 and 2.5 nM of PS and sonicating the mixture for 40 minutes while ice cooling to cause micellization. ATP (final concentration 10.0 μM), [γ-^33P] ATP (final concentration 10 μCi/ml), PIP2-PS (final concentration 5.0 μM) and DMSO solutions of the test compound in different concentrations (compound final concentration 1.0×10^−5 to 2.4×10^−12 M, DMSO final concentration 0.1%) were added to PI 3-kinase p120γ, stirred and reacted at 30° C. for 2 hours. Using Phospholipid-Coated FlashPlate Microplates, 96-Well and Phospholipid FlashPlate Coating Buffer (both manufactured by PerkinElmer Co., Ltd.), PIP2-PS and phosphorylated PIP2-PS were allowed to be adsorbed to the well wall of the plate and collected. The well was washed twice with PBS (Phosphate-Buffered Saline) and dried. The radioactivity was measured using Top Count NXT (manufactured by PerkinElmer Co., Ltd.), whereby the phosphorylated amount (a) of PIP2-PS at the time of compound addition was calculated.
The same procedure was carried out in the absence of the test compound and the phosphorylated amount (b) of PIP2-PS was calculated. Further, the same procedure was carried out in the absence of both of the substrate and the test compound, and the PIP2-PS phosphorylated amount (c) of the background was calculated.
The PI3 Kinase p120γ enzyme activity suppression rate of the compound was calculated by the following formula. Suppression rate (%)=[1−(a−c)/(b−c)]×100
More specifically, using the suppression rate by the test compound of different concentrations, the IC50 value was calculated according to the dose-dependent inhibition curve analyzed by a data analysis software Origin (Lightstone Corp.) and used as the inhibitory activity index.

[1] = read-out: PI3Kγ (IC50 value class)

T1 sequence (P48736 whole entry): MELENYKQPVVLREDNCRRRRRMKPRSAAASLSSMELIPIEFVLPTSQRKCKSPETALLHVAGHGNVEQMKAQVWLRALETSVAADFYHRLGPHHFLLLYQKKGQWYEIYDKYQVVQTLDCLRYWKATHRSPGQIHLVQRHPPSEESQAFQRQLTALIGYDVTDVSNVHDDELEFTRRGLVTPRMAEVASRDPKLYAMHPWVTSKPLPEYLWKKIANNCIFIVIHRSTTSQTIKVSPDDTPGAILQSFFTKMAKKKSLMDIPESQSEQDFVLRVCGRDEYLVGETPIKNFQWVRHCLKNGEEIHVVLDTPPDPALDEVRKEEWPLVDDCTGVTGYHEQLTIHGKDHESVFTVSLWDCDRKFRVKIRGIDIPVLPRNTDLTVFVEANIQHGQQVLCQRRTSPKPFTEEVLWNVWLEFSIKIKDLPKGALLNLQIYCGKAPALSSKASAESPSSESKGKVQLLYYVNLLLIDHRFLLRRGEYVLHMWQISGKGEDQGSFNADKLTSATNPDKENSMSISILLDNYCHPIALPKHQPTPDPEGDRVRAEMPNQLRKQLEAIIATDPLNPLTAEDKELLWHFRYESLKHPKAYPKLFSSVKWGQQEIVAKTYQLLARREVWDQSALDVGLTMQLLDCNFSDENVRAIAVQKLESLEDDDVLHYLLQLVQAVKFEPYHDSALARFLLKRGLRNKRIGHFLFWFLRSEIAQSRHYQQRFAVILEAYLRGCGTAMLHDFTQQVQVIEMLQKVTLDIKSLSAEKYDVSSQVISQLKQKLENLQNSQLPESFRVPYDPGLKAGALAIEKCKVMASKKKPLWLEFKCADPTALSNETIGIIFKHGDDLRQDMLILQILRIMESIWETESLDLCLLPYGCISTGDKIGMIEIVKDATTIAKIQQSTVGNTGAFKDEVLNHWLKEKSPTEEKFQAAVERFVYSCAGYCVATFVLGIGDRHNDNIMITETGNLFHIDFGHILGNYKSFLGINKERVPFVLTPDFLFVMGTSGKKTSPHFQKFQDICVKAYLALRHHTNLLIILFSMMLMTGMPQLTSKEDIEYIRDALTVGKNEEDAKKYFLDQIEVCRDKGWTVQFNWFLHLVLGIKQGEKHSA

Row | IC50 [1] | IC50 (read-out: IC50 value) | SMILES
1 | < 100 nM | – | Cc1nc(NC(=O)NCCC(=O)OC(C)(C)C)sc1-c1nc(CC(C)(C)O)no1 [Example 170]
2 | 100 to 500 nM | – | CCOC(=O)C(C)(C)Cc1noc(-c2sc(NC(C)=O)nc2C)n1 [Example 105]
3 | 100 to 500 nM | – | CC(=O)Nc1nc(C)c(-c2nc(N3CC[C@H](O)C3)no2)s1 [Example 102]
4 | < 100 nM | – | Cc1nc(NC(=O)NCCC(=O)NC(C)(CO)CO)sc1-c1nc(-c2cccnc2)no1 [Example 152]
5 | < 100 nM | – | Cc1nc(NC(=O)NCCC(=O)OC(C)(C)C)sc1-c1nc(-c2cccnc2)no1 [Example 117, Tert-butyl N-({4-methyl-5-[3-(pyridin-3-yl)-1,2,4-oxadiazol-5-yl]-1,3-thiazol-2-yl}carbamoyl)-β-alaninate]
6 | < 100 nM | – | Cc1nc(NC(=O)NCCC(=O)N2CCC(O)CC2)sc1-c1nc(-c2cccnc2)no1 [Example 150]
7 | < 100 nM | – | Cc1nc(NC(=O)OCCC(=O)OC(C)(C)C)sc1-c1nc(-c2cccnc2)no1 [Example 129, Tert-butyl-3-[({4-methyl-5-[3-(pyridin-3-yl)-1,2,4-oxadiazol-5-yl]-1,3-thiazol-2-yl}carbamoyl)oxy]propanoate]
8 | < 100 nM | – | Cc1nc(NC(=O)NCCS(=O)(=O)NC(C)(C)C)sc1-c1nc(-c2cccnc2)no1 [Example 133]
9 | < 100 nM | – | Cc1nc(NC(=O)NCCC(=O)OC(C)(C)C)sc1-c1nc(-c2cncnc2)no1 [Example 141]
10 | < 100 nM | – | Cc1nc(NC(=O)NCC(C)O)sc1-c1nc(-c2cncnc2)no1 (stereo not drawn) [Example 176]
11 | < 100 nM | – | Cc1nc(NC(=O)NCCCNC(C)(C)C)sc1-c1nc(-c2cccnc2)no1 [Example 148]

The remaining lines, values behind:

Row | SMILES | IC50 [1] | IC50 (read-out: IC50 value)
12 | CC(=O)Nc1nc(C)c(-c2nc(-c3ccccn3)no2)s1 [Example 10] | 100 to 500 nM | –
13 | CC(=O)Nc1nc(C)c(-c2nc(-c3cccc(CCO)c3)no2)s1 [Example 28] | < 100 nM | –
14 | CCOC(C)(OCC)c1noc(-c2sc(NC(C)=O)nc2C)n1 [Example 58] | 500 to 10000 nM | –
15 | COC(Cc1noc(-c2sc(NC(C)=O)nc2C)n1)OC [Example 52] | 500 to 10000 nM | –
16 | CC(=O)Nc1nc(C)c(-c2nc(C(C)=O)no2)s1 [Example 60] | < 100 nM | –
17 | CC(=O)Nc1nc(C)c(-c2nc(C3CC3(C)C)no2)s1 (stereo not drawn) [Example 101] | < 100 nM | –
18 | CC(=O)Nc1nc(C)c(-c2nc(C(C)NC(=O)OC(C)(C)C)no2)s1 (stereo not drawn) [Example 74] | 500 to 10000 nM | –
19 | CC(=O)Nc1nc(C)c(-c2nc(CC(C)(C)O)no2)s1 [Example 34] | < 100 nM | –
20 | CC(=O)Nc1nc(C)c(-c2nc(CC3(CO)CC3)no2)s1 [Example 48] | < 100 nM | –
21 | CC(=O)Nc1nc(C)c(-c2nc(-c3cnccc3C)no2)s1 [Example 14] | < 100 nM | –
22 | CC(=O)Nc1nc(C)c(-c2nc(CC(C)(C)C(O)c3ccccc3)no2)s1 (stereo not drawn) [Example 100] | 100 to 500 nM | –
23 | CC(=O)Nc1nc(C)c(-c2nc(CC(C)(C)CF)no2)s1 [Example 95] | < 100 nM | –
24 | CC(=O)Nc1nc(C)c(-c2nc(C[C@H](C)CO)no2)s1 [Example 62] | < 100 nM | –
25 | CNC(=O)c1noc(-c2sc(NC(C)=O)nc2C)n1 [Example 78] | 100 to 500 nM | –
26 | CC(=O)Nc1nc(C)c(-c2nc(CC3CCOCC3)no2)s1 [Example 45] | 100 to 500 nM | –
27 | CC(=O)Nc1nc(C)c(-c2nc(C3CCC3)no2)s1 [Example 26] | < 100 nM | –
28 | CC(=O)Nc1nc(C)c(-c2nc(CCCCOC(C)=O)no2)s1 [Example 59] | 500 to 10000 nM | –
29 | CC(=O)Nc1nc(C)c(-c2nc(CC(O)CC(F)(F)F)no2)s1 (stereo not drawn) [Example 67] | 100 to 500 nM | 428 nM
30 | CC(=O)Nc1nc(C)c(-c2nc(CC(C)(C)C(C)O)no2)s1 (stereo not drawn) [Example 85] | < 100 nM | –
31 | CC(=O)Nc1nc(C)c(-c2nc(CC(C)C)no2)s1 [Example 20] | < 100 nM | –
32 | CC(=O)Nc1nc(C)c(-c2nc(C(=O)NCC(C)O)no2)s1 (stereo not drawn) [Example 91] | 100 to 500 nM | –
